Measured values reported in patent publication US20030203975A1, “Anti-cancer agents” (priority 1998, published 2003).

Tests used:
[1] = tested on: DNA: Calf thymus sodium salt; assay: DNA binding assay, Hoechst dye displacement; design: key: NB = Not binding; conditions: concentration required to displace 50% of the Hoescht Dye; 20 μM DNA, 2 μM dye
Protocol: (§1) The propensity of selected compounds to bind to DNA in the absence of topos was measured in order to identify compounds that would bind weakly, or not at all. […] A […] was used determine binding constants of the compound to DNA by displacement of either ethidium bromide (an intercalator) or Hoechst dye 33258 (a groove binder) which form a DNA-bound fluorescent complex measured by fluorescence spectroscopy.
(§2) DNA Binding Assay Protocol
(§3) In order to detect the strength and mode of anthraquinone compound binding to DNA the displacement of known DNA binders was detected by measuring the fluorescence of a DNA/fluorescent compound complex. The addition of known concentrations of ethidium bromide, an interchelator, and Hoescht Dye, a groove binder, cause a fluorescent DNA/binder complex that can be detected and the fluorescence quantified. The addition of anthraquinone compounds displaces the interchelators or groove binders, depending on the compound mode of DNA binding, and therefore reduces the fluorescence accordingly. The preferred binding action of compounds can be quantified by determining the reduction in fluorescence resulting from a given concentration of compound. The quantification of a compounds ability to bind to DNA is expressed, as the concentration required to displace 50% of the ethidium bromide or Hoescht Dye, thus reducing the fluorescence by 50%. Therefore, the values produced are QE50 for ethidium, bromide, or QH50 for Hoescht Dye.
(§4) Compound: 300, 60, 10 and 10/6gM (1.66 μM) solution concentrations were prepared for use in the assay to produce a range of compound. Concentrations. 100, 200 and 300 μl of each dilution were used in the assay reaction. This provides a range of concentrations: −30, 20, 10, 6, 4, 2, 1, 0.67, 0.33, 0.17, 0.11, 0.06, 0.00 μM in the assay environment. Intermediate concentrations can be utilised to enhance the accuracy of the displacement concentration determination.
(§5) Buffer: 100 mM Tris, NaCI 500 mM. DNA: Calf thymus sodium salt. Stock solution of 200 μM was prepared in 10× assay buffer. Dilution of DNA therefore provided the correct concentration of assay buffer in the assay cell.300 μg DNA was used in 3 ml reaction mixture therefore 20 μM DNA concentration. Hoescht Dye 2 μM final concentration, therefore 100 μl of a 60 μM stock solution was added to a 3 ml assay. Ethidium Bromide 2 μM final concentration therefore 100 μl of a 60 μM stock solution was added to a 3 ml assay. Distilled H2O Water was added to produce 3 ml reaction volume. Order of addition: 1. DNA, 2. Water, 3. Drug, 4. Dye
(§6) The assay was completed with both Hoescht Dye and Ethidium. Bromide for each compound. The ethidium bromide is a DNA inter-chelator, Hoescht Dye is a minor groove binder. 100, 200 and […] of the lowest compound dilution was assayed. This procedure was repeated with all further dilution's. This provided a curve of fluorescence intensity decrease with increasing compound concentration. QE50 and QH50 values were determined by extrapolating the concentration of compound at the point where the fluorescence intensity was reduced by 50%. Controls involving compound only and ethidium. bromide or Hoechst Dye without compound were carried out for each experiment. Two readings for each concentration of compound were performed per experiment, each experiment was repeated at least three times. Fluorometer: Perkin Elmer Luminescence Spectrometer LS 50B.

[2] = tested on: MAC 15A adenocarcinoma of the colon; assay: In vitro chemosensitivity against MAC 15A adenocarcinoma (MTT assay); format: cell-based; conditions: Mus musculus, MAC15A, 96 hours continuous exposure
Protocol: In Vitro Activity Against MAC 15A Adenocarcinoma.
MAC 15A cells were grown in RPMI 1640 medium supplemented with 10% foetal calf serum containing a 1% antibiotic mixture under standard tissue culture conditions and were maintained at 37° C. in a humidified atmosphere of 5% CO2 in air. Cells were harvested from a stock culture in exponential growth phase and plated in 96-well flat-bottomed plates to achieve a final density of 2×10^3 cells per well. After 2 hours incubation medium was replaced with either fresh medium containing 0.5% DMSO (control) or medium containing test compound dissolved in DMSO at a concentrations from 10 mM to 1 nM. Chemosensitivity was assessed using MTT assay by the method of Plumb et al Cancer Research 49 (1989) 4435-4440.
Following 96 hours continuous exposure to drug at 37° C. cells were incubated with fresh drug-free medium immediately prior to addition of MTT solution (5 mg/ml). Medium and MTT were removed after 4 hours and 150 μl of DMSO was added. For each plate the absorbance of the resulting solution was measured at the analytical wavelength 550 nm for formazan product, using a Labsystem Mutiskan. IC50 values were obtained from growth curves of drug concentration against % survival and are expressed in μm.

[3] = tested on: DNA: Calf thymus sodium salt; assay: DNA binding assay, ethidium bromide displacement; design: key: NB = Not binding; conditions: concentration required to displace 50% of the ethidium bromide; 20 μM DNA, 2 μM dye
Protocol: as §1, §2, §3, §4, §5, §6

Topoisomerase IIα = Topoisomerase IIα (Homo sapiens, UniProt P11388); assay: Topo II relaxation assay; format: biochemical; design: key: ‘—’ = Not active; conditions: unit not given; compound at 1, 10, 25 and 50 μM in protocol
Chain of Topoisomerase IIα (P11388 whole entry): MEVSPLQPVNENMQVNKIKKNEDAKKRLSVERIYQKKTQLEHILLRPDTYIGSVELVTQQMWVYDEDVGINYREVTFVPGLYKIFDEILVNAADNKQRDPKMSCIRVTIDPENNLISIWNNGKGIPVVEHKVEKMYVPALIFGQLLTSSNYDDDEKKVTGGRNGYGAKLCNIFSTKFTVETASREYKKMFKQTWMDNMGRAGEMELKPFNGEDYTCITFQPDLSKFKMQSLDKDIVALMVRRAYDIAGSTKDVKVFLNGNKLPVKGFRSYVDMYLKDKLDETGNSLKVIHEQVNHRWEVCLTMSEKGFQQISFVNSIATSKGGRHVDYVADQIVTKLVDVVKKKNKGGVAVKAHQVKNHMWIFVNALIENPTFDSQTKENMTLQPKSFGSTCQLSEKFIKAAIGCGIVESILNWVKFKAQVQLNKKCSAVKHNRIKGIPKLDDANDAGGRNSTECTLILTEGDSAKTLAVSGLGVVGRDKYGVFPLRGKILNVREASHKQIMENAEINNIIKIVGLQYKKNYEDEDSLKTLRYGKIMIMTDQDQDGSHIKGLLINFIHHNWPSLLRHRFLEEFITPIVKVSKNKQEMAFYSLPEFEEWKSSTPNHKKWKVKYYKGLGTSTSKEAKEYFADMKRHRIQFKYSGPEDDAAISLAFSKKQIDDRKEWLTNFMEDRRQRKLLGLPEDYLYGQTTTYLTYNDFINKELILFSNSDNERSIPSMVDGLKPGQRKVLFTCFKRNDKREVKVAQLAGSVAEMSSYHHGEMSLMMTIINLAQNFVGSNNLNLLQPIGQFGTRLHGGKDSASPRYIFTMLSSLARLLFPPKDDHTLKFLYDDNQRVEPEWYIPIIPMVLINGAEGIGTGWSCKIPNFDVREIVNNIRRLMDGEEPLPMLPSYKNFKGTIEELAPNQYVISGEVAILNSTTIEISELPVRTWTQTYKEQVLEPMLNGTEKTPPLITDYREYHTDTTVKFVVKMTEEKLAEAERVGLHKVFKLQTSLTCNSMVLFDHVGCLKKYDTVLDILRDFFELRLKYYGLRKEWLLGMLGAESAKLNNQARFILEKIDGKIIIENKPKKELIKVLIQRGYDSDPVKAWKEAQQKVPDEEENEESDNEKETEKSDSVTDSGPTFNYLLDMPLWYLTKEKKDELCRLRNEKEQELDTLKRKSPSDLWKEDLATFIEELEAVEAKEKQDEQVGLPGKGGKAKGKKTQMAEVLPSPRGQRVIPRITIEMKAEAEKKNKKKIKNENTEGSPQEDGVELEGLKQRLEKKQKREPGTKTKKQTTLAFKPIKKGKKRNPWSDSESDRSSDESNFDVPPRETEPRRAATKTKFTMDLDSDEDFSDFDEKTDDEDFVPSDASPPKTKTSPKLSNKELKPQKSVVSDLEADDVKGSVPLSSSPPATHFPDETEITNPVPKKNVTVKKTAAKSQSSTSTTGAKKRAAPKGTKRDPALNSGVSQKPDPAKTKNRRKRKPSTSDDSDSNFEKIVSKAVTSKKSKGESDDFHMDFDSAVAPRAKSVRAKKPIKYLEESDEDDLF
Protocol: (§7) Topo II Relaxation Assay Protocol
(§8) 10×Topo II Relaxation Buffer
(§9) 500 mM Tris-HCl (pH 7.5); 100 mM mgCI2; 50 mM EDTA; 300 mg/mI BSA; 10 mM DTT; −20° C.

Topoisomerase IIβ = Topoisomerase IIβ (Homo sapiens, UniProt Q02880); assay: Topo II relaxation assay; format: biochemical; design: key: ‘—’ = Not active; conditions: unit not given; compound at 1, 10, 25 and 50 μM in protocol
Chain of Topoisomerase IIβ (Q02880 whole entry): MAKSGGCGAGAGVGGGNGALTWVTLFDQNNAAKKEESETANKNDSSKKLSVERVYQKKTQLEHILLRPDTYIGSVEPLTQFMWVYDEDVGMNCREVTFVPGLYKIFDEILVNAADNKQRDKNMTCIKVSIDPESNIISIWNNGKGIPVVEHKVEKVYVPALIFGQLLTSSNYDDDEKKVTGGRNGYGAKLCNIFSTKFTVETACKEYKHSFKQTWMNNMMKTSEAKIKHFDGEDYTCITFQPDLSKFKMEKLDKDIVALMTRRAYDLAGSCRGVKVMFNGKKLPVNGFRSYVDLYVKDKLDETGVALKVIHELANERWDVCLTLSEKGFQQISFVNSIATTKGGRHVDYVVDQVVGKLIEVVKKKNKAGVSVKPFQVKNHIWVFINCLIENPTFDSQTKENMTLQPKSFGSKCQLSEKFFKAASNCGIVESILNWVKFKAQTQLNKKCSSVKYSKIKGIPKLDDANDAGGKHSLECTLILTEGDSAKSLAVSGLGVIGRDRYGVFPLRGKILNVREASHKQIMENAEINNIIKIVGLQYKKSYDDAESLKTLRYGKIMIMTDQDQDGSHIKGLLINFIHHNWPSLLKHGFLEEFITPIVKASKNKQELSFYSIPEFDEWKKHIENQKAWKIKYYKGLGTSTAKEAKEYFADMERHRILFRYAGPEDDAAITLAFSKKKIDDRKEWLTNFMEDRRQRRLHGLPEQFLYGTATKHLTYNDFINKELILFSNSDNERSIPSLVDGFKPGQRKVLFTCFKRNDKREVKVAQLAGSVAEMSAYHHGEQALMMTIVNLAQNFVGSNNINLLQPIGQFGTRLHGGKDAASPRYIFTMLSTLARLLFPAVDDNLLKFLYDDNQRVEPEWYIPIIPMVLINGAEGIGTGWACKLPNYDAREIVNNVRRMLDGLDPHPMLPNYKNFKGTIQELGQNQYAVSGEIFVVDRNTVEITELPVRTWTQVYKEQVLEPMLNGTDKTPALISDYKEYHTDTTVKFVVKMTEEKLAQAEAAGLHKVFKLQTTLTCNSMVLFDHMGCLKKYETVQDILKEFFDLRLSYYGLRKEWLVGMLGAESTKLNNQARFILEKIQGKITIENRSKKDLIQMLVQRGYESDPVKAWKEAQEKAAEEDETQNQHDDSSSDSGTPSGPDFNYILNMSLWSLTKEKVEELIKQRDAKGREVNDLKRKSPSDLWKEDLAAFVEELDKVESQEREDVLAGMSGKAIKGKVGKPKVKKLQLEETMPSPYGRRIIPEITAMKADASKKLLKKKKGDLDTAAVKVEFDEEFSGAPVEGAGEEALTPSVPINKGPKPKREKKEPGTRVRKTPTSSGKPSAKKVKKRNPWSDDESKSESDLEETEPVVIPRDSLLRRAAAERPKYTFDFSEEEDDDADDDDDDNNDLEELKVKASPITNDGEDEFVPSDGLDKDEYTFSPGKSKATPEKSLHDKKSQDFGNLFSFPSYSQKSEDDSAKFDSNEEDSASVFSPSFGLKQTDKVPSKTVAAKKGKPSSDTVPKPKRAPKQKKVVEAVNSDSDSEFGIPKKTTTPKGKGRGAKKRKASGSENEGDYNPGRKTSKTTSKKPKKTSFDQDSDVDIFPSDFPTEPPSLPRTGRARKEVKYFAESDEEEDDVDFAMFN
Protocol: as §7, §8, §9

C[C@H](N)C(=O)OCCCNc1cccc2c1C(=O)c1ccccc1C2=O.O=C(O)C(F)(F)F [Example 29, 1-[3-(L-alanyloxy)propylamino]anthracene-9,10-dione trifluoroacetate]
QH50 Minor groove binding [1]: NB
melting point: 126 °C
IC50 [2]: 9.7 µM
QE50 Intercalating [3]: NB

N[C@@H](Cc1ccccc1)C(=O)OCCNc1cccc2c1C(=O)c1ccccc1C2=O.O=C(O)C(F)(F)F [Example 33, 1-[2-(L-phenylalanyloxy)ethylamino]anthracene-9,10-dione trifluoro-acetate]
QH50 Minor groove binding [1]: NB
QE50 Intercalating [3]: NB

N[C@@H](Cc1c[nH]c2ccccc12)C(=O)OCCCNc1cccc2c1C(=O)c1ccccc1C2=O.O=C(O)C(F)(F)F [Example 41, 1-[3-(L-tryptophyloxy)propylamino]anthracene-9,10-dione trifluoro-acetate]
TopIIα Relax. (Topoisomerase IIα): —

O=C(O)C(F)(F)F.O=C1c2ccccc2C(=O)c2c(NCCCCOC(=O)[C@@H]3CCCN3)cccc21 [Example 47, 1-[4-(L-prolyloxy)butylamino]anthracene-9,10-dione trifluoroacetate]
TopIIα Relax. (Topoisomerase IIα): 5
TopIIβ Relax. (Topoisomerase IIβ): 10

CC(C)[C@H](N)C(=O)OCCCCNc1ccc(O)c2c1C(=O)c1ccccc1C2=O.O=C(O)C(F)(F)F [Example 53, 4-hydroxy-1-[4-(L-valyloxy)butylamino]anthracene-9,10-dione tri-fluoroacetate]
QH50 Minor groove binding [1]: 4.4 µM
IC50 ([2]; 96 h): 5.3 µM
QE50 Intercalating [3]: 2.9 µM

NCC(=O)OCCNc1cccc2c1C(=O)c1ccccc1C2=O.O=C(O)C(F)(F)F [Example 59, 1-[2-(glycyloxy)ethylamino]anthracene-9,10-dione trifluoroacetate]
melting point: 180 °C
IC50 [2]: 3.5 µM

NCC(=O)OCCCNc1cccc2c1C(=O)c1ccccc1C2=O.O=C(O)C(F)(F)F [Example 61, 1-[3-(glycyloxy)propylamino]anthracene-9,10-dione trifluoroacetate]
melting point: 198 °C
IC50 [2]: 10.6 µM

C[C@@H](N)C(=O)OCCCNc1cccc2c1C(=O)c1ccccc1C2=O.O=C(O)C(F)(F)F [Example 63, 1-[3-(D-alanyloxy)propylamino]anthracene-9,10-dione trifluoroacetate]
QH50 Minor groove binding [1]: NB
melting point: 134 °C
IC50 [2]: 6.9 µM
QE50 Intercalating [3]: NB

N[C@H](Cc1ccccc1)C(=O)OCCCNc1cccc2c1C(=O)c1ccccc1C2=O.O=C(O)C(F)(F)F [Example 65, 1-[3-(D-phenylalanyloxy)propylamino]anthracene-9,10-dione trifluoro-acetate]
melting point: 102 °C
IC50 [2]: 4.8 µM

O=C(O)C(F)(F)F.O=C1c2ccccc2C(=O)c2c(NCCCOC(=O)[C@@H]3CCCN3)cccc21 [Example 67, 1-[3-(L-prolyloxy)propylamino]anthracene-9,10-dione trifluoroacetate]
QH50 Minor groove binding [1]: NB
melting point: 66 °C
IC50 [2]: 8.3 µM
QE50 Intercalating [3]: NB

O=C(O)C(F)(F)F.O=C1c2ccccc2C(=O)c2c(NCCCOC(=O)[C@H]3CCCN3)cccc21 [Example 69, 1-[3-(D-prolyloxy)propylamino]anthracene-9,10-dione trifluoroacetate]
QH50 Minor groove binding [1]: NB
melting point: 66 °C
IC50 [2]: 10.2 µM
QE50 Intercalating [3]: NB

CN(CC(=O)OCCCCNc1cccc2c1C(=O)c1ccccc1C2=O)C(=O)OC(C)(C)C [Example 82, 1-[4-(N-tertiarybutoxycarbonylsarcosyloxy)butylamino]anthracene-9,10-dione]
melting point: 90 °C

CNCC(=O)OCCCCNc1cccc2c1C(=O)c1ccccc1C2=O.O=C(O)C(F)(F)F [Example 83, 1-[4-(sarcosyloxy)butylamino]anthracene-9,10-dione trifluoroacetate]
melting point: 132 °C
IC50 [2]: 7.2 µM

CC[C@H](N)C(=O)OCCCCNc1cccc2c1C(=O)c1ccccc1C2=O.O=C(O)C(F)(F)F [Example 87, (S)-1-[4-(2-aminobutanoyloxy)butylamino]-anthracene-9,10-dione trifluoroacetate]
melting point: 118 °C
IC50 [2]: 3 µM

CN[C@@H](C)C(=O)OCCCCNc1cccc2c1C(=O)c1ccccc1C2=O.O=C(O)C(F)(F)F [Example 91, 1-[4-(N-methyl-L-alanyloxy)butylamino]anthracene-9,10-dione tri-fluoroacetate]
melting point: 84 °C
IC50 ([2]; 96 h): 4.8 µM

NCC(=O)OCCCNc1ccc(O)c2c1C(=O)c1ccccc1C2=O.O=C(O)C(F)(F)F [Example 123, 4-hydroxy-1-[3-(glycyloxy)propylamino]anthracene-9,10-dione tri-fluoroacetate]
melting point: 188 °C
IC50 ([2]; 96 h): 0.3 µM

NCC(=O)OCCCNc1ccc(O)c2c1C(=O)c1c(O)cccc1C2=O.O=C(O)C(F)(F)F [Example 127, 4,8-dihydroxy-1-[3-(glycyloxy)propylamino]anthracene-9,10-dione trifluoroacetate]
melting point: 196 °C
IC50 [2]: 1.3 µM

NCC(=O)N1CCC[C@H]1C(=O)OCCCNc1cccc2c1C(=O)c1ccccc1C2=O.O=C(O)C(F)(F)F [Example 131, 1-[3-(glycyl-L-prolyloxy)propylamino]anthracene-9,10-dione tri-fluoroacetate]
melting point: 146 °C
IC50 ([2]; 96 h): 2.5 µM

CC(C)C[C@H](N)C(=O)NCC(=O)OCCCNc1cccc2c1C(=O)c1ccccc1C2=O.O=C(O)C(F)(F)F [Example 133, 1-[3-(L-leucylglycyloxy)propylamino]anthracene-9,10-dione trifluoroacetate]
melting point: 100 °C
IC50 [2]: 1.2 µM

O=C(O)C(F)(F)F.O=C1c2ccccc2C(=O)c2c(NCCOC(=O)[C@@H]3CCCN3)cccc21 [Example 137, 1-[2-(prolyloxy)ethylamino]anthracene-9,10-dione trifluoroacetate]
QH50 Minor groove binding [1]: NB
IC50 [2]: 33.5 µM
QE50 Intercalating [3]: NB

O=C1c2c(O)ccc(O)c2C(=O)c2c(NCCNCCO)ccc(NCCNCCO)c21 [Mitoxantrone, reference compound]
QH50 Minor groove binding [1]: 1.2 ± 0.3 µM
QE50 Intercalating [3]: 0.8 ± 0.3 µM
